Reference: the NIST ThermoML archive (doi:10.1016/j.jct.2009.05.009)
± gives the expanded uncertainty stated by the source.

Assay: xn = mol fraction of the nth substance listed
Conditions: 101.3 kPa, Liquid, Vibrating tube method

In the case of `CCCC[N+](C)(C)C.O=S(=O)([N-]S(=O)(=O)C(F)(F)F)C(F)(F)F` [butyltrimethylammonium bis(trifluoromethylsulfonyl)imide] + O, the mass density (293.15 K, x2 = 0) is reported as 1399.5 ± 2.6 kg/m3, the mass density (293.15 K, x2 = 0.0387) is reported as 1398.4 ± 2.5 kg/m3 and the mass density (293.15 K, x2 = 0.0765) is reported as 1397 ± 2.5 kg/m3. For the same compound, the mass density (293.15 K, x2 = 0.1132) was 1395.3 ± 2.4 kg/m3, the mass density (293.15 K, x2 = 0.14) was 1394.1 ± 2.4 kg/m3 and the mass density (293.15 K, x2 = 0.189) was 1392.4 ± 2.3 kg/m3. For the same compound, the mass density (293.15 K, x2 = 0.2108) was 1391.8 ± 2.3 kg/m3, the mass density (293.15 K, x2 = 0.2322) was 1391.2 ± 2.3 kg/m3 and the mass density (298.15 K, x2 = 0) was 1395 ± 2.6 kg/m3. For the same compound, the mass density (298.15 K, x2 = 0.0387) was 1393.9 ± 2.5 kg/m3, the mass density (298.15 K, x2 = 0.0765) was 1392.5 ± 2.5 kg/m3 and the mass density (298.15 K, x2 = 0.1132) was 1390.8 ± 2.4 kg/m3. For the same compound, the mass density (298.15 K, x2 = 0.14) was 1389.5 ± 2.4 kg/m3, the mass density (298.15 K, x2 = 0.189) was 1387.8 ± 2.3 kg/m3 and the mass density (298.15 K, x2 = 0.2108) was 1387.2 ± 2.3 kg/m3. The mass density (298.15 K, x2 = 0.2322) was 1386.6 ± 2.3 kg/m3, the mass density (303.15 K, x2 = 0) was 1390.5 ± 2.6 kg/m3 and the mass density (303.15 K, x2 = 0.0387) was 1389.4 ± 2.5 kg/m3. For the same compound, the mass density (303.15 K, x2 = 0.0765) was 1388 ± 2.5 kg/m3, the mass density (303.15 K, x2 = 0.1132) was 1386.3 ± 2.4 kg/m3 and the mass density (303.15 K, x2 = 0.14) was 1385 ± 2.4 kg/m3. For the same compound, the mass density (303.15 K, x2 = 0.189) was 1383.2 ± 2.3 kg/m3, the mass density (303.15 K, x2 = 0.2108) was 1382.5 ± 2.3 kg/m3 and the mass density (303.15 K, x2 = 0.2322) was 1381.8 ± 2.3 kg/m3. The mass density (308.15 K, x2 = 0) was 1386.1 ± 2.5 kg/m3, the mass density (308.15 K, x2 = 0.0387) was 1384.9 ± 2.5 kg/m3 and the mass density (308.15 K, x2 = 0.0765) was 1383.5 ± 2.5 kg/m3. For the same compound, the mass density (308.15 K, x2 = 0.1132) was 1381.9 ± 2.4 kg/m3, the mass density (308.15 K, x2 = 0.14) was 1380.6 ± 2.4 kg/m3 and the mass density (308.15 K, x2 = 0.189) was 1378.7 ± 2.3 kg/m3. It also gave a mass density (308.15 K, x2 = 0.2108) of 1377.8 ± 2.3 kg/m3, a mass density (308.15 K, x2 = 0.2322) of 1377.1 ± 2.3 kg/m3 and a mass density (313.15 K, x2 = 0) of 1381.6 ± 2.5 kg/m3. For the same compound, the mass density (313.15 K, x2 = 0.0387) was 1380.5 ± 2.5 kg/m3, the mass density (313.15 K, x2 = 0.0765) was 1379 ± 2.5 kg/m3 and the mass density (313.15 K, x2 = 0.1132) was 1377.4 ± 2.4 kg/m3. It also gave a mass density (313.15 K, x2 = 0.14) of 1376.1 ± 2.4 kg/m3, a mass density (313.15 K, x2 = 0.189) of 1374.1 ± 2.3 kg/m3 and a mass density (313.15 K, x2 = 0.2108) of 1373.2 ± 2.3 kg/m3. It also gave a mass density (313.15 K, x2 = 0.2322) of 1372.4 ± 2.3 kg/m3, a mass density (318.15 K, x2 = 0) of 1377.1 ± 2.5 kg/m3 and a mass density (318.15 K, x2 = 0.0387) of 1376 ± 2.5 kg/m3. For the same compound, the mass density (318.15 K, x2 = 0.0765) was 1374.6 ± 2.5 kg/m3, the mass density (318.15 K, x2 = 0.1132) was 1372.9 ± 2.4 kg/m3 and the mass density (318.15 K, x2 = 0.14) was 1371.6 ± 2.4 kg/m3. For the same compound, the mass density (318.15 K, x2 = 0.189) was 1369.6 ± 2.3 kg/m3, the mass density (318.15 K, x2 = 0.2108) was 1368.7 ± 2.3 kg/m3 and the mass density (318.15 K, x2 = 0.2322) was 1367.8 ± 2.3 kg/m3. It also gave a mass density (323.15 K, x2 = 0) of 1372.6 ± 2.5 kg/m3, a mass density (323.15 K, x2 = 0.0387) of 1371.5 ± 2.5 kg/m3 and a mass density (323.15 K, x2 = 0.0765) of 1370 ± 2.5 kg/m3. It also gave a mass density (323.15 K, x2 = 0.1132) of 1368.4 ± 2.4 kg/m3, a mass density (323.15 K, x2 = 0.14) of 1367.1 ± 2.4 kg/m3 and a mass density (323.15 K, x2 = 0.189) of 1365.1 ± 2.3 kg/m3. For the same compound, the mass density (323.15 K, x2 = 0.2108) was 1364.1 ± 2.3 kg/m3, the mass density (323.15 K, x2 = 0.2322) was 1363.2 ± 2.3 kg/m3 and the mass density (328.15 K, x2 = 0) was 1368.2 ± 2.5 kg/m3. For the same compound, the mass density (328.15 K, x2 = 0.0387) was 1367 ± 2.5 kg/m3, the mass density (328.15 K, x2 = 0.0765) was 1365.5 ± 2.4 kg/m3 and the mass density (328.15 K, x2 = 0.1132) was 1363.9 ± 2.4 kg/m3. The mass density (328.15 K, x2 = 0.14) was 1362.6 ± 2.4 kg/m3, the mass density (328.15 K, x2 = 0.189) was 1360.5 ± 2.3 kg/m3 and the mass density (328.15 K, x2 = 0.2108) was 1359.5 ± 2.3 kg/m3. For the same compound, the mass density (328.15 K, x2 = 0.2322) was 1358.5 ± 2.3 kg/m3, the mass density (333.15 K, x2 = 0) was 1363.7 ± 2.5 kg/m3 and the mass density (333.15 K, x2 = 0.0387) was 1362.4 ± 2.5 kg/m3. For the same compound, the mass density (333.15 K, x2 = 0.0765) was 1360.9 ± 2.4 kg/m3, the mass density (333.15 K, x2 = 0.1132) was 1359.3 ± 2.4 kg/m3 and the mass density (333.15 K, x2 = 0.14) was 1358 ± 2.4 kg/m3. It also gave a mass density (333.15 K, x2 = 0.189) of 1355.8 ± 2.3 kg/m3, a mass density (333.15 K, x2 = 0.2108) of 1354.8 ± 2.3 kg/m3 and a mass density (333.15 K, x2 = 0.2322) of 1353.7 ± 2.3 kg/m3. For the same compound, the mass density (338.15 K, x2 = 0) was 1359.2 ± 2.5 kg/m3, the mass density (338.15 K, x2 = 0.0387) was 1357.9 ± 2.5 kg/m3 and the mass density (338.15 K, x2 = 0.0765) was 1356.3 ± 2.4 kg/m3. The mass density (338.15 K, x2 = 0.1132) was 1354.7 ± 2.4 kg/m3, the mass density (338.15 K, x2 = 0.14) was 1353.3 ± 2.4 kg/m3 and the mass density (338.15 K, x2 = 0.189) was 1351.1 ± 2.3 kg/m3. It also gave a mass density (338.15 K, x2 = 0.2108) of 1350 ± 2.3 kg/m3, a mass density (338.15 K, x2 = 0.2322) of 1348.7 ± 2.3 kg/m3 and a mass density (343.15 K, x2 = 0) of 1354.8 ± 2.5 kg/m3. The mass density (343.15 K, x2 = 0.0387) was 1353.4 ± 2.5 kg/m3, the mass density (343.15 K, x2 = 0.0765) was 1351.8 ± 2.4 kg/m3 and the mass density (343.15 K, x2 = 0.1132) was 1350.2 ± 2.4 kg/m3. The mass density (343.15 K, x2 = 0.14) was 1348.7 ± 2.4 kg/m3, the mass density (343.15 K, x2 = 0.189) was 1346.4 ± 2.3 kg/m3 and the mass density (343.15 K, x2 = 0.2108) was 1345.1 ± 2.3 kg/m3. It also gave a mass density (343.15 K, x2 = 0.2322) of 1343.8 ± 2.3 kg/m3.

`O` [water] + CCOS(=O)(=O)[O-].CCn1cc[n+](C)c1 gave a mass density (318.15 K, x1 = 1) of 990.1 ± 2 kg/m3, a mass density (323.15 K, x1 = 1) of 988 ± 2 kg/m3 and a mass density (328.15 K, x1 = 1) of 985.7 ± 2 kg/m3. The mass density (333.15 K, x1 = 1) was 983.2 ± 2 kg/m3, the mass density (338.15 K, x1 = 1) was 980.5 ± 2 kg/m3 and the mass density (343.15 K, x1 = 1) was 977.8 ± 2 kg/m3.
